# Results published in US10266526B2, “Substituted 1,2,3-triazoles as SMYD inhibitors for treating cancer” (EPIZYME, INC., priority 2014, dated 2019).
# How the values were obtained:
# [1] = test system: esophageal, liver and breast cancer cell lines; conditions: several esophageal, dose-dependent; cited from earlier work
# SMYD3 [2] = biological target: T1, SMYD3 (Homo sapiens (Human), UniProt Q9H7B4); assay: SMYD3 biochemical assay (SMYD3 enzyme assay on MEKK2 protein substrate, 3H-SAM scintillation proximity assay); conditions: Table 3A; average of n = 1 to n = 50; read-out: SMYD3 Biochem IC50
# T1 sequence (Q9H7B4 whole entry): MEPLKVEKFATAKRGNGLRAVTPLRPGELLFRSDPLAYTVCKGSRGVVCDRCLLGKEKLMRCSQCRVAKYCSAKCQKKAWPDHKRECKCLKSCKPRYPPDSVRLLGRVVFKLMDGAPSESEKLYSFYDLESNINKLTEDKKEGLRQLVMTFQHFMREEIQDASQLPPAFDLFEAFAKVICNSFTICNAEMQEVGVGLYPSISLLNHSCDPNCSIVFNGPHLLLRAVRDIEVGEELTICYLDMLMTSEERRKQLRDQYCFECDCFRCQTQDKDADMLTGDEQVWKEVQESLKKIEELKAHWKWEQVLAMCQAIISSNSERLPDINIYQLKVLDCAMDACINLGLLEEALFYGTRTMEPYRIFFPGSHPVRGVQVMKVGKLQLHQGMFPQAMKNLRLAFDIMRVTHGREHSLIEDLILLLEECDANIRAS
# Summary of the method: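 Native full-length human SMYD3, expressed in E. coli, was preincubated with compound for 30 min at room temperature in 25 mM Tris-Cl pH 8.0, 1 mM TCEP, 0.005% BSG and 0.005% Tween 20. ³H-SAM plus GST-MEKK2 then started the reaction. It was stopped with unlabeled SAM (100 uM final), and methylated MEKK2 was read by SPA.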
# SMYD3 [3] = biological target: T1, SMYD3; assay: SMYD3 cell assay (Trimethyl-MEKK2 In-Cell Western in 293T/17 cells transfected with MEKK2-flag and SMYD3); type: cell-based; conditions: Table 3A; average of n = 1 to n = 50; read-out: SMYD3 cell IC50
# Summary of the method: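 Methanol-fixed cells stained in-cell Western for trimethyl-MEKK2 and anti-flag. Ratio-based % inhibition against DMSO and background controls; IC50 by non-linear regression, triplicate wells.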
Compound,proliferation of cancer cell lines [1],IC50 (SMYD3 [2]),IC50 (SMYD3 [3])
Cc1cn(CCN2CCN(c3ccccc3-c3cc(C#N)cc(C(=O)NCCCN4CCCC4)c3)CC2)c2ccccc12 [LLY-507],inhibited the proliferation,–,–
"NC1CCN(S(=O)(=O)N2[C@@H]3CC[C@H]2C[C@@H](NC(=O)c2cc(C4CC4)no2)C3)CC1 [compound 644, N-((1R,3r,5S)-8-((4-aminopiperidin-1-yl)sulfonyl)-8-azabicyclo[3.2.1]octan-3-yl)-3-cyclopropylisoxazole-5-carboxamide]",–,18.5 nM,257 nM
"C[C@H]1C[C@@H](NC(=O)c2ccc3c(c2)CC(=O)N3)CCN1S(=O)(=O)CC1CCNCC1 [compound 599, N-((2S,4S)-2-methyl-1-((piperidin-4-ylmethyl)sulfonyl)piperidin-4-yl)-2-oxoindoline-5-carboxamide]",–,4.42 nM,9490 nM
"O=C(N[C@H]1C[C@H]2CC[C@@H](C1)N2S(=O)(=O)[C@H]1CC[C@H](NCc2ccccc2)CC1)c1ccc2c(c1)OC(F)(F)O2 [compound 627, N-((1R,3R,5S)-8-(((1r,4R)-4-(benzylamino)cyclohexyl)sulfonyl)-8-azabicyclo[3.2.1]octan-3-yl)-2,2-difluorobenzo[d][1,3]dioxole-5-carboxamide]",–,225 nM,1540 nM
"CCc1cnnc(C(=O)N[C@H]2CCN(S(=O)(=O)N3CCC(N)CC3)[C@@H](C)C2)c1 [compound 619, N-((2S,4S)-1-((4-aminopiperidin-1-yl)sulfonyl)-2-methylpiperidin-4-yl)-5-ethylpyridazine-3-carboxamide]",–,59.6 nM,468 nM
"CN1C(=O)Cc2cc(C(=O)N[C@H]3C[C@H]4CC[C@@H](C3)N4S(=O)(=O)CC3CCNCC3)ccc21 [compound 611, 1-methyl-2-oxo-N-((1R,3r,5S)-8-((piperidin-4-ylmethyl)sulfonyl)-8-azabicyclo[3.2.1]octan-3-yl)indoline-5-carboxamide]",–,25.9 nM,3920 nM
"NC1CCN(S(=O)(=O)N2[C@@H]3CC[C@H]2C[C@@H](NC(=O)c2cc4c(cc2Br)NC(=O)C4)C3)CC1 [compound 602, N-((1R,3r,5S)-8-((4-aminopiperidin-1-yl)sulfonyl)-8-azabicyclo[3.2.1]octan-3-yl)-6-bromo-2-oxoindoline-5-carboxamide]",–,7.12 nM,3730 nM
"NC1CCN(S(=O)(=O)N2[C@@H]3CC[C@H]2C[C@@H](NC(=O)c2cc4c(cc2F)NC(=O)C4)C3)CC1 [compound 576, N-((1R,3r,5S)-8-((4-aminopiperidin-1-yl)sulfonyl)-8-azabicyclo[3.2.1]octan-3-yl)-6-fluoro-2-oxoindoline-5-carboxamide]",–,0.49 nM,525 nM
"C[C@H]1C[C@@H](NC(=O)c2cnn(C3CC3)c2)CCN1S(=O)(=O)N1CCC(N)CC1 [compound 639, N-((2S,4S)-1-((4-aminopiperidin-1-yl)sulfonyl)-2-methylpiperidin-4-yl)-1-cyclopropyl-1H-pyrazole-4-carboxamide]",–,1000 nM,≥ 10000 nM
"CN1C(=O)Cc2cc(C(=O)N[C@H]3C[C@H]4CC[C@@H](C3)N4S(=O)(=O)N3CCC(N)CC3)c(Cl)cc21 [compound 604, N-((1R,3r,5S)-8-((4-aminopiperidin-1-yl)sulfonyl)-8-azabicyclo[3.2.1]octan-3-yl)-6-chloro-1-methyl-2-oxoindoline-5-carboxamide]",–,13.5 nM,207 nM
